In patent publication US8399416B2, “Method of using heparin binding motif for treating asthma” (National Tsing Hua University, priority 2008, dated 2013):
Read-outs that look alike come from different tables or passages of the source.

Experiments:
Beas-2B cells [1] = conditions: biotinylated peptides, 1 h at 4° C.
Experimental: FIG. 7. Synthetic peptides inhibit ECP binding to cells. A, Beas-2B cells were preincubated with peptides in RPMI 1640 medium for 30 min at 4° C. before incubation with MBP-ECP for an additional 1 h. After treatment, the cells were washed with PBS and fixed with PFA. The level of bound MBP-ECP was assessed by ELISA. The amount of MBP-ECP bound to cells without peptide treatment was set to 100%. The data shown are the means of triplicate experiments. B, Beas2-B cells were incubated with biotinylated peptides for 1 h at 4° C. The amount of peptides bound to cells was assessed as for FIG. 3.
To investigate whether the RWRCK (SEQ ID NO: 8) motif is directly responsible for heparin binding, cell ELISA was conducted using a synthetic peptide, C1 (SEQ ID NO: 3), along with a positive control peptide derived from HIV-TAT, TAT (SEQ ID NO: 6) (Vives, E., et al. (1997) The Journal of biological chemistry 272, 16010-16017; Ziegler, A. and Seelig, J. (2004) Biophysical journal 86, 254-263). […] Therefore, synthetic peptides with heparin binding activity may compete with ECP for cellular binding. Furthermore, the cell surface binding ability of peptides was tested using cell ELISA assay.

[2] = AMAC-labeled LMWH, increasing peptide concentrations, room temperature 15 min
Experimental: FIG. 9. FACE analysis of synthetic peptides. AMAC-labeled LMWH were incubated without or with increasing concentrations of C1, TAT, D1 and R1 peptides at room temperature for 15 min. Samples were loaded and separated by agarose gel electrophoresis as described for FIG. 2.
Synthetic heparin oligosaccharide (FIG. 1) (Lee, C. J., et al. (2004) J Am Chem Soc 126, 476-477), low molecular weight heparin (LMWH) and PI-88 (kindly provided by Progen Inc., Australia) were labeled with 2-aminoacridone (AMAC) as described (Calabro, A., et al. (2000) Glycobiology 10, 273-281). AMAC-oligosaccharide and proteins were incubated at room temperature for 15 min, loaded onto 1% gels and electrophoresed as described (Holmes, O., et al. (2007) J Mol Biol 367, 395-408).
In addition, because EDN contains a conventional heparin binding sequence, the corresponding peptide, D1 (SEQ ID NO: 4), was also synthesized and tested.

[3] = PBS buffer at 25° C.; HMWH 10-20 μM
Experimental: FIG. 11. Isothermal titration calorimetry of heparin-peptide interaction. The top panels show the differential power time course. Raw data for sequential 6-μl injections of each synthetic peptide in PBS buffer at 25° C. TAT (positive control), B, R1 (negative control), C, C1, and D, D1 into the sample cell containing 1.4 ml HMWH solution (10-20 μM). The total heat released in each injection is proportional to the area under the corresponding peak. […] The solid line represents a non-linear least squares of the reaction heat for the injection.

[4] = tested on: Beas-2B cell surface heparan sulfate; conditions: 4° C. for 30 min
Experimental: Human Beas-2B cells were incubated with synthetic peptide (A, TAT; B, D1) at 4° C. for 30 min and then washed, fixed and analyzed. Synthetic peptide was identified with mouse anti-biotin monoclonal antibody and FITC-conjugated goat anti-mouse antibody. The distribution of synthetic peptide was examined by confocal microscopy.
To investigate whether the heparin binding QRRCK motif on EDN, corresponding to the “RWRCK” motif on ECP (SEQ ID NO: 8), was directly responsible for heparan sulfate binding on cell surface, Beas-2B cell-peptide binding was conducted using a synthetic peptide, D1 (SEQ ID NO: 4), and a positive control, TAT (SEQ ID NO: 6) purchased from Genemed Synthesis (South San Francisco, Calif.).

Beas-2B cells [5] = test: Cell ELISA of MBP-ECP and MBP-ECP mt1 binding to cells; type: cell-based, human; conditions: MBP-ECP mt1 relative to MBP-ECP; 1 h at 4° C.
Beas-2B cell line [6] = test: MTT cytotoxicity assay of ECP; type: cell-based, human; conditions: 37° C. 48 h, read-out: IC50 for cytotoxic ECP
Experimental: FIG. 12. Cytotoxicity of wild-type and mutant ECP. Beas-2B cells were incubated with increasing concentrations of wild-type and mt1 ECP at 37° C. for 48 h, followed by the MTT assay. The error bars show standard deviation among triplicate experiments.
The inhibition of lymphocyte and mammalian cell growth by ECP has been reported (Fan, T. C., et al. (2007) Traffic 8, 1778-1795; Maeda, T., et al. (2002) European Journal of Biochemistry 269, 307-316). As a physiological test, the cytotoxicity of ECP mt1 was monitored by MTT assay. The effect of ECP on the cell growth was determined by a colorimetric assay using 3-(4,5-dimethylthiazol-2-yl)-2,5-diphenyltetrazolium bromide (MTT) (US Biological, MA, USA). Cells were plated in a 96-well plate (5000 cells/well) and incubated at 37° C. overnight. Each sample was incubated with the indicated concentration (1-100 μM) of ECP. Forty-eight hours after treatment with ECP, MTT was added, and cell growth was monitored at A570 to measure the mitochondrial-dependent formation of a colored product.

Beas-2B cell line [7] = conditions: data taken from reference (Fan et al. 2007), read-out: IC50 for cytotoxic ECP; cited from earlier work

Molecule: NYQRRCKNQNK-biotin [D1]
- cell surface binding ability of peptides (Beas-2B cells [1]): bound to the cell surface
- interaction with LMWH (FACE) [2]: bound heparin as tightly as C1
- heat release on binding to HMWH (ITC) [3]: exothermal reaction modes were clearly observed
- peptide binding to cell surface (confocal microscopy) [4]: bound to Beas-2B cell surface heparan sulfate

B1: ECP mt1: ECP mutant with R34A/W35A/R36A/K38A substitutions (protein, UniProt P12724 28-160, looked up, variant R34A W35A R36A K38A)
Eosinophil cationic protein: RPPQFTRAQWFAIQHISLNPPRCTIAMRAINNYAAACANQNTFLRTTFANVVNVCGNQSIRCPHNRTLNNCHRSRFRVPLLHCDLINPGAQNISNCTYADRPGRRFYVVACDNRDPRDSPRYPVVPVHLDTTI
- cell-binding activity (Beas-2B cells [5]): 50%
- IC50 (Beas-2B cell line [6]): 38.5 µM

B2: ECP wt: Recombinant human eosinophil cationic protein with C-terminal His6 tag, expressed in E. coli (protein, UniProt P12724 28-160, looked up)
Eosinophil cationic protein: RPPQFTRAQWFAIQHISLNPPRCTIAMRAINNYRWRCKNQNTFLRTTFANVVNVCGNQSIRCPHNRTLNNCHRSRFRVPLLHCDLINPGAQNISNCTYADRPGRRFYVVACDNRDPRDSPRYPVVPVHLDTTI
modifications: C-terminal His6 tag
notes: Recombinant human eosinophil cationic protein with C-terminal His6 tag, expressed in E. coli
- IC50 (Beas-2B cell line [7]): 16.1 µM
